Results from ChEMBL document CHEMBL4373740, “Synthesis and biological evaluation of new MET inhibitors with 1,6-naphthyridinone scaffold” (Eur J Med Chem, 2020).

How the values were obtained:
[1] = target: Vascular endothelial growth factor receptor 2 (Homo sapiens, UniProt P35968); assay: Inhibition of purified recombinant VEGFR2 kinase domain (unknown origin) using biotin as substrate preincubated for 5 mins followed by substrate addition and measured after 30 to 60 mins in presence of ATP by HTRF assay
Chain of Vascular endothelial growth factor receptor 2 (P35968 whole entry, the tested form may be a part): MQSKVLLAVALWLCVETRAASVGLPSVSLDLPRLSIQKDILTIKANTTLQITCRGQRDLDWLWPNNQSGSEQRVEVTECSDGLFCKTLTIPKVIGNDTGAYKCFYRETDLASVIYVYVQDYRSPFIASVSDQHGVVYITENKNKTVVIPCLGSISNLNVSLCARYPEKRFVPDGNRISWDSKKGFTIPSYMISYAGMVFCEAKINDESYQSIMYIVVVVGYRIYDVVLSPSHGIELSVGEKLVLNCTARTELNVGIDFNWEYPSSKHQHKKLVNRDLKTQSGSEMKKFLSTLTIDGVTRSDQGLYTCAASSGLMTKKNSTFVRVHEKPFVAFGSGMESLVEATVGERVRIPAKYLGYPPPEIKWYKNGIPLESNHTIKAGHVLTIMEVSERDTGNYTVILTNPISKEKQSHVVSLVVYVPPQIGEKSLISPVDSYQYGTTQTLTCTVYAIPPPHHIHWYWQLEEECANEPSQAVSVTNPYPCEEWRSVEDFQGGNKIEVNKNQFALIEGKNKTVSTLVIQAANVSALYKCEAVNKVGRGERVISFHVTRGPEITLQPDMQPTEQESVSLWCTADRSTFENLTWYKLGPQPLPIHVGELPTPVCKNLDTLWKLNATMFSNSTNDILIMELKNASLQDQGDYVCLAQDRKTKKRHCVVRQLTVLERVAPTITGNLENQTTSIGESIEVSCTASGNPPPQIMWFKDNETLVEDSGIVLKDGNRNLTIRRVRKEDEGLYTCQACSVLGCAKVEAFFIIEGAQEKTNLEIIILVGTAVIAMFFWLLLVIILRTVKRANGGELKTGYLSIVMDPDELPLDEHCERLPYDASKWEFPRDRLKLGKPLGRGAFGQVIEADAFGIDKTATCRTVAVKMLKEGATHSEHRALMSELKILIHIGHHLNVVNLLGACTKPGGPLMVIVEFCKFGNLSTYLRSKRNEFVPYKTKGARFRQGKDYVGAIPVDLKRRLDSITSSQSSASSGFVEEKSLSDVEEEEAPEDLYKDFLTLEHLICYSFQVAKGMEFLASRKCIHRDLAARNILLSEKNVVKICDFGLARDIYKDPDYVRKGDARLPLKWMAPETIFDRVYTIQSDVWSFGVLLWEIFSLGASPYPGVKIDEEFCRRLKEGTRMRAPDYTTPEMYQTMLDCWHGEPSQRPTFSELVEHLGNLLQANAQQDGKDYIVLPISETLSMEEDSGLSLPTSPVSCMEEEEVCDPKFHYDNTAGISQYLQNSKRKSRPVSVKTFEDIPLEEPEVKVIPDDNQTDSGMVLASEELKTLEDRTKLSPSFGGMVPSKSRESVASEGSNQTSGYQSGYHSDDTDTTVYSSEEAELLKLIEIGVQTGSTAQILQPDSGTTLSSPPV

[2] = target: Hepatocyte growth factor receptor (Homo sapiens, UniProt P08581); assay: Inhibition of purified recombinant MET kinase domain (unknown origin) using biotin as substrate preincubated for 5 mins followed by substrate addition and measured after 30 to 60 mins in presence of ATP by HTRF assay
Chain of Hepatocyte growth factor receptor (P08581 whole entry, the tested form may be a part): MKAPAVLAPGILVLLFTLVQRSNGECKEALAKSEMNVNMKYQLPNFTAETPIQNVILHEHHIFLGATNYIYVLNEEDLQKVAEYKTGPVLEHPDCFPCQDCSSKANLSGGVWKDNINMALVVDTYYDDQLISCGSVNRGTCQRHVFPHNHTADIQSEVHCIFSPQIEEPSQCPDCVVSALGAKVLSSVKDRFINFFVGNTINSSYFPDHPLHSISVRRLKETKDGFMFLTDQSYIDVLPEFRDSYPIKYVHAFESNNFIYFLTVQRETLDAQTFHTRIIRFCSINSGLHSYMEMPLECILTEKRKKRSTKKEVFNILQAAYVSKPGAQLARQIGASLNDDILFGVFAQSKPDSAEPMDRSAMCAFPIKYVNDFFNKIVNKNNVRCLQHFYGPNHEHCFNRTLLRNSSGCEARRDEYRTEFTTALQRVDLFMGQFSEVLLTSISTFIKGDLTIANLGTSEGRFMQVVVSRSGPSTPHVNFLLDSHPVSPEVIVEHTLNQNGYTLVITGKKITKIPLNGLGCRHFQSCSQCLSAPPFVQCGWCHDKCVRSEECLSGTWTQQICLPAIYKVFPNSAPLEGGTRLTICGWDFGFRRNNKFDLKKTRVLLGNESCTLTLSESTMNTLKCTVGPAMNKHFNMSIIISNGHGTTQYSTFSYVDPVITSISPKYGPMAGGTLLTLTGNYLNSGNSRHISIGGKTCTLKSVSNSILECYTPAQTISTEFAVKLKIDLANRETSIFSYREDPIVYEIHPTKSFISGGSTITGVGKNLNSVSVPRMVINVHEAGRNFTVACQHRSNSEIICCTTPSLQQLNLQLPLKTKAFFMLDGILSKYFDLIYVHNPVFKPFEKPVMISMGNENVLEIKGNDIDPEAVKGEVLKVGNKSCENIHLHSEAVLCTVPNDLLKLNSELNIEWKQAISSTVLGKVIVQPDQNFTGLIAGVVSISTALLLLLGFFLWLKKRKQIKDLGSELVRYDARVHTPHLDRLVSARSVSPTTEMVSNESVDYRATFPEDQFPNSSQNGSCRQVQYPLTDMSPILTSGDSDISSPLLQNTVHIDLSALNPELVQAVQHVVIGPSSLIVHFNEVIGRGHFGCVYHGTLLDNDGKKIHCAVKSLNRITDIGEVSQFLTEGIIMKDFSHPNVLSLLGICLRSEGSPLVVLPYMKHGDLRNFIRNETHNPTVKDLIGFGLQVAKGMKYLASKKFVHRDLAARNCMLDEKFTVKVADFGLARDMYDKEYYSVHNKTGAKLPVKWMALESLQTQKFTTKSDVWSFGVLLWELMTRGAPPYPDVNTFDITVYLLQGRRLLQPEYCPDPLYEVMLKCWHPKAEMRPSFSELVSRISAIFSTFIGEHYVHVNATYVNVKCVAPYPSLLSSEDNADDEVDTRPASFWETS

MKN-45 = assay: Antiproliferative activity against human MKN45 cells at 10 uM incubated for 72 hrs by MTT assay relative to control; format: functional; conditions: MKN-45, 72 h
HT-29 = assay: Antiproliferative activity against human HT-29 cells at 10 uM incubated for 72 hrs by MTT assay relative to control; format: functional; conditions: HT-29, 72 h
[3] = Antiproliferative activity against human NIH-H460 cells at 10 uM incubated for 72 hrs by MTT assay relative to control; format: functional; conditions: NIH-H460, 72 h
Homo sapiens = organism: Homo sapiens; assay: Selectivity index, ratio of IC50 for purified recombinant VEGFR2 kinase domain (unknown origin) to IC50 for purified recombinant MET kinase domain (unknown origin)
in vitro = conditions: human, liver microsomes
[4] = Half life in Sprague-Dawley rat at 10 mg/kg, ig measured for 15 min to 72 hrs by LC-MS/MS analysis; format: ADME, organism-based; conditions: in vivo, po
[5] = Oral bioavailability in Sprague-Dawley rat at 10 mg/kg, ig measured for 15 min to 72 hrs by LC-MS/MS analysis; format: ADME, organism-based; conditions: in vivo
[6] = Half life in Sprague-Dawley rat at 2.5 mg/kg, iv measured for 5 min to 72 hrs by LC-MS/MS analysis; format: ADME, organism-based; conditions: in vivo
[7] = Volume of distribution in Sprague-Dawley rat at 2.5 mg/kg, iv measured for 5 min to 72 hrs by LC-MS/MS analysis; format: ADME, organism-based; conditions: in vivo
[8] = Volume of distribution in Sprague-Dawley rat at 10 mg/kg, ig measured for 15 min to 72 hrs by LC-MS/MS analysis; format: ADME, organism-based; conditions: in vivo, po
[9] = Tmax in Sprague-Dawley rat at 10 mg/kg, ig measured for 15 min to 72 hrs by LC-MS/MS analysis; format: ADME, organism-based; conditions: in vivo, po
[10] = Tmax in Sprague-Dawley rat at 2.5 mg/kg, iv measured for 5 min to 72 hrs by LC-MS/MS analysis; format: ADME, organism-based; conditions: in vivo
[11] = Cmax in Sprague-Dawley rat at 10 mg/kg, ig measured for 15 min to 72 hrs by LC-MS/MS analysis; format: ADME, organism-based; set-up: dose 10 mg/kg, route intragastric; conditions: in vivo, po
[12] = AUC (0 to infinity) in Sprague-Dawley rat at 2.5 mg/kg, iv measured for 5 min to 72 hrs by LC-MS/MS analysis; format: ADME, organism-based; set-up: dose 2.5 mg/kg, route intravenous, time infinity; conditions: in vivo
[13] = Clearance in Sprague-Dawley rat at 10 mg/kg, ig measured for 15 min to 72 hrs by LC-MS/MS analysis; format: ADME, organism-based; conditions: in vivo, po
[14] = Cmax in Sprague-Dawley rat at 2.5 mg/kg, iv measured for 5 min to 72 hrs by LC-MS/MS analysis; format: ADME, organism-based; set-up: dose 2.5 mg/kg, route intravenous; conditions: in vivo
[15] = AUC (0 to infinity) in Sprague-Dawley rat at 10 mg/kg, ig measured for 15 min to 72 hrs by LC-MS/MS analysis; format: ADME, organism-based; set-up: dose 10 mg/kg, time infinity, route intragastric; conditions: in vivo, po
[16] = Mean residence time in Sprague-Dawley rat at 10 mg/kg, ig measured for 15 min to 72 hrs by LC-MS/MS analysis; format: ADME, organism-based; conditions: in vivo, po
[17] = Mean residence time in Sprague-Dawley rat at 2.5 mg/kg, iv measured for 5 min to 72 hrs by LC-MS/MS analysis; format: ADME, organism-based; conditions: in vivo
[18] = Clearance in Sprague-Dawley rat at 2.5 mg/kg, iv measured for 5 min to 72 hrs by LC-MS/MS analysis; format: ADME, organism-based; conditions: in vivo
[19] = Volume of distribution in Sprague-Dawley rat at 1.0 mg/kg, iv measured for 5 min to 72 hrs by LC-MS/MS analysis; format: ADME, organism-based; conditions: in vivo
[20] = Mean residence time in Sprague-Dawley rat at 1.0 mg/kg, iv measured for 5 min to 72 hrs by LC-MS/MS analysis; format: ADME, organism-based; conditions: in vivo
[21] = Clearance in Sprague-Dawley rat at 1.0 mg/kg, iv measured for 5 min to 72 hrs by LC-MS/MS analysis; format: ADME, organism-based; conditions: in vivo
[22] = Half life in Sprague-Dawley rat at 1.0 mg/kg, iv measured for 5 min to 72 hrs by LC-MS/MS analysis; format: ADME, organism-based; conditions: in vivo
[23] = Volume of distribution in Sprague-Dawley rat at 5.0 mg/kg, ig measured for 15 min to 72 hrs by LC-MS/MS analysis; format: ADME, organism-based; conditions: in vivo, po
[24] = Mean residence time in Sprague-Dawley rat at 5.0 mg/kg, ig measured for 15 min to 72 hrs by LC-MS/MS analysis; format: ADME, organism-based; conditions: in vivo, po
[25] = Cmax in Sprague-Dawley rat at 5.0 mg/kg, ig measured for 15 min to 72 hrs by LC-MS/MS analysis; format: ADME, organism-based; set-up: dose 5 mg/kg, route intragastric; conditions: in vivo, po
[26] = AUC (0 to infinity) in Sprague-Dawley rat at 5.0 mg/kg, ig measured for 15 min to 72 hrs by LC-MS/MS analysis; format: ADME, organism-based; set-up: dose 5 mg/kg, time infinity, route intragastric; conditions: in vivo, po
[27] = Tmax in Sprague-Dawley rat at 5.0 mg/kg, ig measured for 15 min to 72 hrs by LC-MS/MS analysis; format: ADME, organism-based; conditions: in vivo, po
[28] = Half life in Sprague-Dawley rat at 5.0 mg/kg, ig measured for 15 min to 72 hrs by LC-MS/MS analysis; format: ADME, organism-based; conditions: in vivo, po
[29] = Cmax in Sprague-Dawley rat at 1.0 mg/kg, iv measured for 5 min to 72 hrs by LC-MS/MS analysis; format: ADME, organism-based; set-up: dose 1 mg/kg, route intravenous; conditions: in vivo
[30] = AUC (0 to infinity) in Sprague-Dawley rat at 1.0 mg/kg, iv measured for 5 min to 72 hrs by LC-MS/MS analysis; format: ADME, organism-based; set-up: dose 1 mg/kg, time infinity, route intravenous; conditions: in vivo
[31] = Clearance in Sprague-Dawley rat at 5.0 mg/kg, ig measured for 15 min to 72 hrs by LC-MS/MS analysis; format: ADME, organism-based; conditions: in vivo, po
[32] = Oral bioavailability in Sprague-Dawley rat at 5.0 mg/kg, ig measured for 15 min to 72 hrs by LC-MS/MS analysis; format: ADME, organism-based; conditions: in vivo

Structure (SMILES) | IC50 [1] | IC50 [2] | half-life (in vitro) | inhibition at 10 µM (MKN-45) | inhibition at 10 µM (HT-29) | inhibition at 10 µM [3] | further results
CCCCC(=O)Nc1cc(Oc2ccc(Nc3nccc4[nH]cc(-c5ccc(F)cc5)c(=O)c34)cc2F)ccn1 | 26.9 nM | 14.7 nM |  | 62.7% | -42.2% | 71.8% | 
O=C(Nc1cc(Oc2ccc(Nc3nccc4[nH]cc(-c5ccc(F)cc5)c(=O)c34)cc2F)ccn1)C1CCCCC1 | > 3000 nM | 9.8 nM | 1.34 h | 55.2% | 8.7% | 72.1% | Ratio IC50 (Homo sapiens): > 306
COc1cc2nccc(Oc3ccc(NC(=O)C4(C(=O)Nc5ccc(F)cc5)CC4)cc3)c2cc1OC [CABOZANTINIB] |  |  |  | 49.1% | 29% | 54.8% | 
CC(C)C(=O)Nc1cc(Oc2ccc(Nc3nccc4[nH]cc(-c5ccc(F)cc5)c(=O)c34)cc2F)ccn1 | 230 nM | 17.7 nM |  | 95.4% | 83.4% | 84.6% | 
CCCC(=O)Nc1cc(Oc2ccc(Nc3nccc4[nH]cc(-c5ccc(F)cc5)c(=O)c34)cc2F)ccn1 | 19.4 nM | 14.8 nM |  | 64.6% | 23.5% | 49.7% | 
CCC(=O)Nc1cc(Oc2ccc(Nc3nccc4[nH]cc(-c5ccc(F)cc5)c(=O)c34)cc2F)ccn1 | 20.2 nM | 4.7 nM | 2.72 h | 92.1% | 68.7% | 69.7% | 
CC(O)C(=O)Nc1cc(Oc2ccc(Nc3nccc4[nH]cc(-c5ccc(F)cc5)c(=O)c34)cc2F)ccn1 (configuration not stated) | 289 nM | 11.8 nM | 4.15 h | 67.3% | 47.8% | 56% | 
O=C(Nc1cc(Oc2ccc(Nc3nccc4c3c(=O)c(-c3ccc(F)cc3)cn4CCO)cc2F)ccn1)C1CC1 | 10500 nM | 33.8 nM |  | 41.8% | 3.5% | 52.1% | 
CCn1cc(-c2ccc(F)cc2)c(=O)c2c(Nc3ccc(Oc4ccnc(NC(=O)C5CC5)c4)c(F)c3)nccc21 | 1380 nM | 15.6 nM |  | 31.9% | 15.8% | 11% | Ratio IC50 (Homo sapiens): 88
O=C(Nc1cc(Oc2ccc(Nc3nccc4[nH]cc(-c5ccc(F)cc5)c(=O)c34)cc2F)ccn1)C1CCC1 | 61.2 nM | 24 nM |  | 52.8% | 46% | 43.6% | 
O=C(Nc1cc(Oc2ccc(Nc3nccc4[nH]cc(-c5ccc(F)cc5)c(=O)c34)cc2F)ccn1)C1CC1 | 8.8 nM | 8.1 nM | 13.2 h | 81.8% | 25.5% | 54.6% | Vd [19]: 0.7 L/kg; MRT [20]: 8.5 h; clearance [21]: 1.33 mL/min/kg; half-life [22]: 6.8 h; Vd [23]: 1.1 L/kg; MRT [24]: 11.4 h; Cmax [25]: 2700 ng/mL; AUC(0-inf) [26]: 42200 ng·h/mL; Tmax [27]: 7.3 h; half-life [28]: 6.4 h; Cmax [29]: 1900 ng/mL; AUC(0-inf) [30]: 13500 ng·h/mL; CL/F [31]: 1.67 mL/min/kg; bioavailability [32]: 63%

Now from value to compound, other results behind:

IC50 [1] | IC50 [2] | half-life (in vitro) | Structure (SMILES) | inhibition at 10 µM (MKN-45) | inhibition at 10 µM (HT-29) | inhibition at 10 µM [3] | further results
38.1 nM | 21.4 nM |  | CC(=O)Nc1cc(Oc2ccc(Nc3nccc4[nH]cc(-c5ccc(F)cc5)c(=O)c34)cc2F)ccn1 | 77.1% | 36.8% | 58.2% | 
> 30000 nM | 25.9 nM |  | CC(C)(O)Cn1cc(-c2ccc(F)cc2)c(=O)c2c(Nc3ccc(Oc4ccnc(NC(=O)C5CC5)c4)c(F)c3)nccc21 | 44.3% | -2.6% | 67.4% | 
68 nM | 9.8 nM | 3.16 h | Nc1nccc(Oc2ccc(Nc3nccc4[nH]cc(-c5ccc(F)cc5)c(=O)c34)cc2F)c1Cl | 85.7% | 56.2% | 79.1% | half-life [4]: 1 h; bioavailability [5]: 12%; half-life [6]: 0.5 h; Vd [7]: 0.4 L/kg; Vd [8]: 7.5 L/kg; Tmax [9]: 2.7 h; Tmax [10]: 1.8 min; Cmax [11]: 600 ng/mL; AUC(0-inf) [12]: 4500 ng·h/mL; CL/F [13]: 83.3 mL/min/kg; Cmax [14]: 16400 ng/mL; AUC(0-inf) [15]: 2200 ng·h/mL; MRT [16]: 3 h; MRT [17]: 0.3 h; clearance [18]: 10 mL/min/kg
> 3000 nM | 35 nM |  | CC(C)(O)C(=O)Nc1cc(Oc2ccc(Nc3nccc4[nH]cc(-c5ccc(F)cc5)c(=O)c34)cc2F)ccn1 | 57.8% | -2.9% | 54.3% | Ratio IC50 (Homo sapiens): > 85.7
58.9 nM | 9.9 nM | 7.23 h | O=C(CO)Nc1cc(Oc2ccc(Nc3nccc4[nH]cc(-c5ccc(F)cc5)c(=O)c34)cc2F)ccn1 | 63% | 18.5% | 53.6% | 
> 3000 nM | 28.1 nM |  | CC(C)(C)C(=O)Nc1cc(Oc2ccc(Nc3nccc4[nH]cc(-c5ccc(F)cc5)c(=O)c34)cc2F)ccn1 | 62.5% | -45.8% | 56.7% | Ratio IC50 (Homo sapiens): > 107
